According to PubChem BioAssay (NCI):
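How tested: cells in 96-well plates exposed to compound for 48 hours at five concentrations. TGI denotes the concentration required for complete inhibition of growth.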

Legend:
Assay in all cases: growth of human tumour cells (NCI), 48 h
RXF 393 renal = test system: RXF 393 renal
SF-539 CNS = test system: SF-539 CNS
OVCAR-8 ovarian = test system: OVCAR-8 ovarian
HOP-92 NSCLC = test system: HOP-92 NSCLC
CCRF-CEM leukemia = test system: CCRF-CEM leukemia
786-0 renal = test system: 786-0 renal
KM12 colon = test system: KM12 colon
MDA-MB-435 = test system: MDA-MB-435
TK-10 renal = test system: TK-10 renal
MALME-3M melanoma = test system: MALME-3M melanoma
COLO 205 colon = test system: COLO 205 colon
MOLT-4 leukemia = test system: MOLT-4 leukemia
HCT-15 colon = test system: HCT-15 colon
OVCAR-3 ovarian = test system: OVCAR-3 ovarian
NCI-H522 lung = test system: NCI-H522 lung
MCF7 breast = test system: MCF7 breast
SW-620 colon = test system: SW-620 colon
SN12C renal = test system: SN12C renal
MDA-N = test system: MDA-N
NCI/ADR-RES ovarian = test system: NCI/ADR-RES ovarian
NCI-H226 lung = test system: NCI-H226 lung
IGROV1 ovarian = test system: IGROV1 ovarian
CAKI-1 renal = test system: CAKI-1 renal
UACC-62 melanoma = test system: UACC-62 melanoma
OVCAR-4 ovarian = test system: OVCAR-4 ovarian
SK-MEL-5 melanoma = test system: SK-MEL-5 melanoma
K-562 leukemia = test system: K-562 leukemia
T-47D breast = test system: T-47D breast
SF-295 CNS = test system: SF-295 CNS
LOX IMVI melanoma = test system: LOX IMVI melanoma
SNB-75 CNS = test system: SNB-75 CNS
SNB-19 CNS = test system: SNB-19 CNS
EKVX NSCLC = test system: EKVX NSCLC
BT-549 breast = test system: BT-549 breast
SK-MEL-28 melanoma = test system: SK-MEL-28 melanoma
SR leukemia = test system: SR leukemia
U251 CNS = test system: U251 CNS
HCT-116 colon = test system: HCT-116 colon
SK-MEL-2 melanoma = test system: SK-MEL-2 melanoma
HL-60(TB) leukemia = test system: HL-60(TB) leukemia
HCC-2998 colon = test system: HCC-2998 colon
OVCAR-5 ovarian = test system: OVCAR-5 ovarian
SK-OV-3 ovarian = test system: SK-OV-3 ovarian
MDA-MB-231 breast = test system: MDA-MB-231 breast
UO-31 renal = test system: UO-31 renal
NCI-H460 lung = test system: NCI-H460 lung
M14 melanoma = test system: M14 melanoma
HT29 colon = test system: HT29 colon
DU-145 prostate = test system: DU-145 prostate
NCI-H23 lung = test system: NCI-H23 lung
PC-3 prostate = test system: PC-3 prostate
UACC-257 melanoma = test system: UACC-257 melanoma
ACHN renal = test system: ACHN renal
A549 NSCLC = test system: A549 NSCLC
A498 renal = test system: A498 renal

For `O=C(Nc1cc2c(=O)oc3ccccc3c2oc1=O)c1cccnc1`, the TGI (RXF 393 renal) was over 100 µM, the TGI (SF-539 CNS) was over 100 µM and the TGI (OVCAR-8 ovarian) was over 100 µM. It also gave a TGI (HOP-92 NSCLC) of over 100 µM, a TGI (CCRF-CEM leukemia) of over 100 µM and a TGI (786-0 renal) of over 100 µM. For the same molecule, the TGI (KM12 colon) was over 100 µM, the TGI (MDA-MB-435) was over 100 µM and the TGI (TK-10 renal) was over 100 µM. It also gave a TGI (MALME-3M melanoma) of over 100 µM, a TGI (COLO 205 colon) of over 100 µM and a TGI (MOLT-4 leukemia) of over 100 µM. The TGI (HCT-15 colon) was over 100 µM, the TGI (OVCAR-3 ovarian) was over 100 µM and the TGI (NCI-H522 lung) was over 100 µM. For the same molecule, the TGI (MCF7 breast) was over 100 µM, the TGI (SW-620 colon) was over 100 µM and the TGI (SN12C renal) was over 100 µM. The TGI (MDA-N) was over 100 µM, the TGI (NCI/ADR-RES ovarian) was over 100 µM and the TGI (NCI-H226 lung) was over 100 µM. It also gave a TGI (IGROV1 ovarian) of over 100 µM, a TGI (CAKI-1 renal) of over 100 µM and a TGI (UACC-62 melanoma) of over 100 µM. For the same molecule, the TGI (OVCAR-4 ovarian) was over 100 µM, the TGI (SK-MEL-5 melanoma) was over 100 µM and the TGI (K-562 leukemia) was over 100 µM. It also gave a TGI (T-47D breast) of over 100 µM, a TGI (SF-295 CNS) of over 100 µM and a TGI (LOX IMVI melanoma) of over 100 µM. For the same molecule, the TGI (SNB-75 CNS) was over 100 µM, the TGI (SNB-19 CNS) was over 100 µM and the TGI (EKVX NSCLC) was over 100 µM. For the same molecule, the TGI (BT-549 breast) was over 100 µM, the TGI (SK-MEL-28 melanoma) was over 100 µM and the TGI (SR leukemia) was over 100 µM. For the same molecule, the TGI (U251 CNS) was over 100 µM, the TGI (HCT-116 colon) was over 100 µM and the TGI (SK-MEL-2 melanoma) was over 100 µM. For the same molecule, the TGI (HL-60(TB) leukemia) was over 100 µM, the TGI (HCC-2998 colon) was over 100 µM and the TGI (OVCAR-5 ovarian) was over 100 µM. For the same molecule, the TGI (SK-OV-3 ovarian) was over 100 µM, the TGI (MDA-MB-231 breast) was over 100 µM and the TGI (UO-31 renal) was over 100 µM. For the same molecule, the TGI (NCI-H460 lung) was over 100 µM, the TGI (M14 melanoma) was over 100 µM and the TGI (HT29 colon) was over 100 µM. For the same molecule, the TGI (DU-145 prostate) was over 100 µM, the TGI (NCI-H23 lung) was over 100 µM and the TGI (PC-3 prostate) was over 100 µM. The TGI (UACC-257 melanoma) was over 100 µM, the TGI (ACHN renal) was over 100 µM and the TGI (A549 NSCLC) was over 100 µM.

Molecule `CCOC(=O)c1c(C)cc(=O)n2c1[nH]c1ccccc12` has a TGI (RXF 393 renal) of over 100 µM, a TGI (SF-539 CNS) of over 100 µM and a TGI (OVCAR-8 ovarian) of over 100 µM. It also gave a TGI (HOP-92 NSCLC) of over 100 µM, a TGI (CCRF-CEM leukemia) of over 100 µM and a TGI (786-0 renal) of over 100 µM. It also gave a TGI (TK-10 renal) of over 100 µM, a TGI (MALME-3M melanoma) of over 100 µM and a TGI (COLO 205 colon) of over 100 µM. The TGI (MOLT-4 leukemia) was over 100 µM, the TGI (HCT-15 colon) was over 100 µM and the TGI (OVCAR-3 ovarian) was over 100 µM. For the same molecule, the TGI (MCF7 breast) was over 100 µM, the TGI (SW-620 colon) was over 100 µM and the TGI (SN12C renal) was over 100 µM. For the same molecule, the TGI (MDA-N) was over 100 µM, the TGI (NCI/ADR-RES ovarian) was over 100 µM and the TGI (NCI-H226 lung) was over 100 µM. It also gave a TGI (IGROV1 ovarian) of over 100 µM, a TGI (CAKI-1 renal) of 50.9 µM and a TGI (UACC-62 melanoma) of over 100 µM. It also gave a TGI (SK-MEL-5 melanoma) of over 100 µM, a TGI (K-562 leukemia) of over 100 µM and a TGI (A498 renal) of over 100 µM. The TGI (T-47D breast) was over 100 µM, the TGI (SF-295 CNS) was over 100 µM and the TGI (LOX IMVI melanoma) was over 100 µM. The TGI (SNB-19 CNS) was over 100 µM, the TGI (EKVX NSCLC) was over 100 µM and the TGI (BT-549 breast) was over 100 µM. For the same molecule, the TGI (SK-MEL-28 melanoma) was over 100 µM, the TGI (U251 CNS) was over 100 µM and the TGI (HCT-116 colon) was over 100 µM. The TGI (SK-MEL-2 melanoma) was over 100 µM, the TGI (HL-60(TB) leukemia) was over 100 µM and the TGI (HCC-2998 colon) was over 100 µM. The TGI (OVCAR-5 ovarian) was over 100 µM, the TGI (SK-OV-3 ovarian) was over 100 µM and the TGI (MDA-MB-231 breast) was over 100 µM. The TGI (UO-31 renal) was over 100 µM, the TGI (NCI-H460 lung) was over 100 µM and the TGI (M14 melanoma) was over 100 µM. For the same molecule, the TGI (HT29 colon) was over 100 µM, the TGI (DU-145 prostate) was over 100 µM and the TGI (NCI-H23 lung) was over 100 µM. The TGI (PC-3 prostate) was over 100 µM, the TGI (UACC-257 melanoma) was over 100 µM and the TGI (ACHN renal) was over 100 µM. It also gave a TGI (A549 NSCLC) of over 100 µM.
